Experiment: In vitro inhibition of Hematopoietic protein-tyrosine phosphatase using p-nitrophenyl phosphate as substrate.

Compared with COC(=O)CNC(=O)C(NC(=O)c1ccc(/C=C/C(=O)O)cc1)c1ccccc1 (stereo not drawn), CCOC(=O)CNC(=O)C(NC(=O)c1ccc(/C=C/C(=O)O)cc1)c1ccccc1 (stereo not drawn) is 2.1-fold lower in IC50: 20.2 µM for the first, 9.6 µM for the second. The second is the more potent here.

Compared with O=C(O)/C=C/c1ccc(C(=O)NC(C(=O)NCC(=O)O)c2ccccc2)cc1 (stereo not drawn), CCCCNC(=O)C(NC(=O)c1ccc(/C=C/C(=O)O)cc1)c1ccccc1 (stereo not drawn) is 1.6-fold lower in IC50: 10.4 µM for the first, 6.7 µM for the second.

CCCCCCC(NC(=O)c1ccc(/C=C/C(=O)O)cc1)C(=O)NCc1ccccc1 (stereo not drawn) and CCCCC(NC(=O)c1ccc(/C=C/C(=O)O)cc1)C(=O)NCc1ccccc1 (stereo not drawn) are within 1.5-fold of each other in IC50: 6 µM for the first, 6.3 µM for the second.

Compared with O=C(O)/C=C/c1ccc(C(=O)NC(C(=O)NCc2ccccc2)c2ccccc2)cc1 (stereo not drawn), CC(NC(=O)c1ccc(/C=C/C(=O)O)cc1)C(=O)NCc1ccccc1 (stereo not drawn) is 1.8-fold higher in IC50: 3.9 µM for the first, 7.2 µM for the second.

CCCCCCC(NC(=O)c1ccc(/C=C/C(=O)O)cc1)C(=O)NCCCC (stereo not drawn) and CCCCCCC(NC(=O)c1ccc(/C=C/C(=O)O)cc1)C(=O)NCC(=O)OCC (stereo not drawn) are within 1.5-fold of each other in IC50: 9 µM for the first, 10 µM for the second.

Going from CC(C)(C)NC(=O)C(NC(=O)c1ccc(/C=C/C(=O)O)cc1)c1ccccc1 (stereo not drawn) to O=C(O)/C=C/c1ccc(C(=O)NC(C(=O)NC2CCCCC2)c2ccccc2)cc1 (stereo not drawn), the IC50 rises from 4 µM to 6.2 µM (1.6-fold).

CCCCCCC(NC(=O)c1ccc(/C=C/C(=O)O)cc1)C(=O)NCC(=O)OC (stereo not drawn) and CCCCCCC(NC(=O)c1ccc(/C=C/C(=O)O)cc1)C(=O)NCC(=O)O (stereo not drawn) are within 1.5-fold of each other in IC50: 7.2 µM for the first, 7.5 µM for the second.

Compared with CCCC(NC(=O)c1ccc(/C=C/C(=O)O)cc1)C(=O)NCc1ccccc1 (stereo not drawn), CCC(NC(=O)c1ccc(/C=C/C(=O)O)cc1)C(=O)NCc1ccccc1 (stereo not drawn) is 2.5-fold higher in IC50: 6.1 µM for the first, 15 µM for the second. The first is the more potent here.

CCCCCCC(NC(=O)c1ccc(/C=C/C(=O)O)cc1)C(=O)NC(C)(C)C (stereo not drawn) and CCCCCCC(NC(=O)c1ccc(/C=C/C(=O)O)cc1)C(=O)NC1CCCCC1 (stereo not drawn) are within 1.5-fold of each other in IC50: 7.5 µM for the first, 9 µM for the second.
